The values below come from US8455534B2, “Estrogen receptor modulators and uses thereof” (Aragon Pharmaceuticals, Inc., priority 2010, dated 2013).

One test relates to MCF-7 cells. Put plainly: Breast Cancer Cell Viability Assay (MCF-7, CellTiter-Glo). The note with it: 5 days' compound exposure; for IC50: Homo sapiens, MCF7, 120 h. It is filed as cell-based. Put shortly: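 Eleven-point semilog compound series, final 0.3-0.000003 μM, added to overnight-adhered MCF-7 cells (320/well; RPMI, 10% FBS, 20 mM HEPES) for 5 days. Viability read by CellTiter-Glo luminescence, background from medium without cells subtracted, expressed relative to untreated cells.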
(In general: Cellular ATP, detected with luciferase, serves as a proxy for viable cell number.)

In another test the target is T1, ER-α (Homo sapiens, UniProt P03372).
T1 sequence (P03372 1-595): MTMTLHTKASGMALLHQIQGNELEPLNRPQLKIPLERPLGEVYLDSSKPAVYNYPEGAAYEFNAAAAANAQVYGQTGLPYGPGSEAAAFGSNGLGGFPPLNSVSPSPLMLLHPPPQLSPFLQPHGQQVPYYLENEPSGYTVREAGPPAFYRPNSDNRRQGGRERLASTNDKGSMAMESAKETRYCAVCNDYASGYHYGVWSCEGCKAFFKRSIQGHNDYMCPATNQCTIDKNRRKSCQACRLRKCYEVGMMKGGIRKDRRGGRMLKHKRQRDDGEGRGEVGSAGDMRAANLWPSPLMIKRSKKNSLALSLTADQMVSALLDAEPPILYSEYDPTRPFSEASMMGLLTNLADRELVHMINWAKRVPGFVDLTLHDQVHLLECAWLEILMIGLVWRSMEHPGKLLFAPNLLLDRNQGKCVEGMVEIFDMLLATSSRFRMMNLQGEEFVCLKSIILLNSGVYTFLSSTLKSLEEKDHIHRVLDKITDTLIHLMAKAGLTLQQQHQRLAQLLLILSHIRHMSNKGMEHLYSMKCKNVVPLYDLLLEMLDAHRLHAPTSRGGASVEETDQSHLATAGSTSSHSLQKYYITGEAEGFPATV
Put plainly: Breast Cancer Cell ER-α In Cell Western Assay (SP1). It is filed as cell-based. The note with it: MCF-7 cells, SP1 antibody, 4 or 24 hr post compound addition; for Emax: MCF7, read-out: ER-α In Cell Western Assay (SP1) Max Response; for DC50: read-out: ER-α In Cell Western Assay (SP1) IC50. Put shortly: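 ER-α protein levels measured by in-cell western with SP1 antibody, ratioed to DRAQ5 DNA signal and given as percent of untreated controls. Compounds added at 0.3–0.000003 μM final (eleven semilog points) to adherent MCF-7 cells in stripped serum; exposure 4 or 24 h before fixation.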

With `O=C(O)/C=C/c1ccc(/C(=C(/CCCl)c2ccc(F)cc2Cl)c2ccc3[nH]ncc3c2)cc1` [Compound 67, (E)-3-(4-((E)-4-Chloro-2-(2-chloro-4-fluorophenyl)-1-(1H-indazol-5-yl)but-1-en-1-yl)phenyl)acrylic acid], in the test with MCF-7 cells, the “MCF7 Viability Assay Max Response” value is reported as “++ (++ = a single % value ≧ 40%)” and the IC50 (as a rule, the concentration that gives 50% inhibition) was no more than 100 nM. On ER-α, the Emax was no less than 40% and the DC50 is no more than 100 nM.
Take `O=C(O)/C=C/c1ccc(/C(=C(\c2ccccc2)C(F)(F)F)c2ccc3[nH]ncc3c2)cc1` [Compound 68, (E)-3-(4-((Z)-3,3,3-Trifluoro-1-(1H-indazol-5-yl)-2-phenylprop-1-en-1-yl)phenyl)acrylic acid]: in the test on MCF-7 cells, the “MCF7 Viability Assay Max Response” value is reported as “++ (++ = a single % value ≧ 40%)” and the IC50 was no more than 100 nM. Also, at ER-α, the Emax was no less than 40% and the DC50 is no more than 100 nM.
For `CC/C(=C(/c1ccc(/C=C/C(=O)O)cc1)c1ccc2[nH]ncc2c1F)c1ccc(F)cc1C` [Compound 69, (E)-3-(4-((E)-1-(4-Fluoro-1H-indazol-5-yl)-2-(4-fluoro-2-methylphenyl)but-1-en-1-yl)phenyl)acrylic acid], in the test with MCF-7 cells, the “MCF7 Viability Assay Max Response” value was “++ (++ = a single % value ≧ 40%)” and the IC50 was no more than 100 nM. For the same molecule, at ER-α, the Emax is no less than 40% and the DC50 was no more than 100 nM.
In the case of `CC/C(=C(/c1ccc(/C=C/C(=O)O)cc1)c1ccc2[nH]ncc2c1F)c1ccc(Cl)cc1C` [Compound 70, (E)-3-(4-((E)-2-(4-Chloro-2-methylphenyl)-1-(4-fluoro-1H-indazol-5-yl)but-1-en-1-yl)phenyl)acrylic acid], in the test on MCF-7 cells, the “MCF7 Viability Assay Max Response” value is on record as “++ (++ = a single % value ≧ 40%)” and the IC50 is no more than 100 nM. Besides, on ER-α, the Emax is no less than 40% and the DC50 was no more than 100 nM.
Take `Cc1cc(F)ccc1/C(=C(\c1ccc(/C=C/C(=O)O)cc1)c1ccc2[nH]ncc2c1F)C1CC1` [Compound 71, (E)-3-(4-((E)-2-Cyclopropyl-1-(4-fluoro-1H-indazol-5-yl)-2-(4-fluoro-2-methylphenyl)vinyl)phenyl)acrylic acid]: in the test with MCF-7 cells, the “MCF7 Viability Assay Max Response” value is on record as “++ (++ = a single % value ≧ 40%)” and the IC50 was no more than 100 nM. In addition, at ER-α, the Emax is no less than 40% and the DC50 was no more than 100 nM.
Take `Cc1cc(Cl)ccc1/C(=C(\c1ccc(/C=C/C(=O)O)cc1)c1ccc2[nH]ncc2c1F)C1CC1` [Compound 72, (E)-3-(4-((E)-2-(4-Chloro-2-methylphenyl)-2-cyclopropyl-1-(4-fluoro-1H-indazol-5-yl)vinyl)phenyl)acrylic acid]: in the test on MCF-7 cells, the “MCF7 Viability Assay Max Response” value is reported as “++ (++ = a single % value ≧ 40%)” and the IC50 was no more than 100 nM. For the same molecule, at ER-α, the Emax was no less than 40% and the DC50 is no more than 100 nM.
Take `CC/C(=C(/c1ccc(/C=C/C(=O)O)cc1)c1ccc2[nH]ncc2c1Cl)c1ccc(F)cc1Cl` [Compound 73, (E)-3-(4-((E)-1-(4-Chloro-1H-indazol-5-yl)-2-(2-chloro-4-fluorophenyl)but-1-en-1-yl)phenyl)acrylic acid]: in the test with MCF-7 cells, the “MCF7 Viability Assay Max Response” value is listed as “++ (++ = a single % value ≧ 40%)” and the IC50 was no more than 100 nM. At ER-α, the Emax was no less than 40% and the DC50 was no more than 100 nM.
`O=C(O)/C=C/c1ccc(/C(=C(\c2ccc(F)cc2Cl)C(F)F)c2ccc3[nH]ncc3c2)cc1` [Compound 74, (E)-3-(4-((Z)-2-(2-Chloro-4-fluorophenyl)-3,3-difluoro-1-(1H-indazol-5-yl)prop-1-en-1-yl)phenyl)acrylic acid]: in the test on MCF-7 cells, the “MCF7 Viability Assay Max Response” value is recorded as “++ (++ = a single % value ≧ 40%)” and the IC50 was no more than 100 nM. For the same molecule, at ER-α, the Emax was no less than 40% and the DC50 is no more than 100 nM.
As for `O=C(O)/C=C/c1ccc(/C(=C(\c2ccccc2)C2CC2)c2ccc3[nH]ncc3c2F)cc1` [Compound 75, (E)-3-(4-((E)-2-Cyclopropyl-1-(4-fluoro-1H-indazol-5-yl)-2-phenylvinyl)phenyl)acrylic acid], in the test on MCF-7 cells, the “MCF7 Viability Assay Max Response” value was “++ (++ = a single % value ≧ 40%)” and the IC50 was no more than 100 nM. On ER-α, the Emax was no less than 40% and the DC50 is no more than 100 nM.
On to `O=C(O)/C=C/c1ccc(/C(=C(/CCCl)c2ccccc2)c2ccc3[nH]ncc3c2F)cc1` [Compound 76, (E)-3-(4-((E)-4-Chloro-1-(4-fluoro-1H-indazol-5-yl)-2-phenylbut-1-en-1-yl)phenyl)acrylic acid], for which, in the test with MCF-7 cells, the “MCF7 Viability Assay Max Response” value is recorded as “++ (++ = a single % value ≧ 40%)” and the IC50 is no more than 100 nM. Further, on ER-α, the Emax is no less than 40% and the DC50 was no more than 100 nM.
On to `O=C(O)/C=C/c1ccc(/C(=C(/CCCl)c2ccc(F)cc2Cl)c2ccc3[nH]ncc3c2F)cc1` [Compound 77, (E)-3-(4-((E)-4-Chloro-2-(2-chloro-4-fluorophenyl)-1-(4-fluoro-1H-indazol-5-yl)but-1-en-1-yl)phenyl)acrylic acid], for which, in the test with MCF-7 cells, the “MCF7 Viability Assay Max Response” value is “++ (++ = a single % value ≧ 40%)” and the IC50 was no more than 100 nM. On ER-α, the Emax is no less than 40% and the DC50 is no more than 100 nM.
Turning to `O=C(O)/C=C/c1ccc(/C(=C(/CCF)c2ccc(F)cc2)c2ccc3[nH]ncc3c2)cc1` [Compound 78, (E)-3-(4-((E)-4-Fluoro-2-(4-fluorophenyl)-1-(1H-indazol-5-yl)but-1-en-1-yl)phenyl)acrylic acid], in the test with MCF-7 cells, the “MCF7 Viability Assay Max Response” value was “++ (++ = a single % value ≧ 40%)” and the IC50 is no more than 100 nM. Moreover, on ER-α, the Emax was no less than 40% and the DC50 is no more than 100 nM.
As for `O=C(O)/C=C/c1ccc(/C(=C(/CCF)c2ccccc2)c2ccc3[nH]ncc3c2F)cc1` [Compound 79, (E)-3-(4-((E)-4-Fluoro-1-(4-fluoro-1H-indazol-5-yl)-2-phenylbut-1-en-1-yl)phenyl)acrylic acid], in the test with MCF-7 cells, the “MCF7 Viability Assay Max Response” value is “++ (++ = a single % value ≧ 40%)” and the IC50 was no more than 100 nM. Moreover, on ER-α, the Emax was no less than 40% and the DC50 was no more than 100 nM.
With `COCCC/C(=C(/c1ccc(/C=C/C(=O)O)cc1)c1ccc2[nH]ncc2c1)c1ccccc1` [Compound 80, (E)-3-(4-((E)-1-(1H-Indazol-5-yl)-5-methoxy-2-phenylpent-1-en-1-yl)phenyl)acrylic acid], in the test on MCF-7 cells, the “MCF7 Viability Assay Max Response” value is listed as “++ (++ = a single % value ≧ 40%)” and the IC50 was greater than 100 nM. At ER-α, the Emax was no less than 40% and the DC50 was no more than 100 nM.
For `COCCCC/C(=C(/c1ccc(/C=C/C(=O)O)cc1)c1ccc2[nH]ncc2c1)c1ccccc1` [Compound 81, (E)-3-(4-((E)-1-(1H-Indazol-5-yl)-6-methoxy-2-phenylhex-1-en-1-yl)phenyl)acrylic acid], in the test on MCF-7 cells, the “MCF7 Viability Assay Max Response” value was “++ (++ = a single % value ≧ 40%)” and the IC50 was greater than 100 nM. Further, at ER-α, the Emax is no less than 40% and the DC50 was no more than 100 nM.
Consider `CC(C)/C(=C(/c1ccc(/C=C/C(=O)O)cc1)c1ccc2[nH]ncc2c1)c1ccc(F)cc1Cl` [Compound 82, (E)-3-(4-((E)-2-(2-Chloro-4-fluorophenyl)-1-(1H-indazol-5-yl)-3-methylbut-1-en-1-yl)phenyl)acrylic acid], for which, in the test with MCF-7 cells, the “MCF7 Viability Assay Max Response” value was “++ (++ = a single % value ≧ 40%)” and the IC50 was no more than 100 nM. In addition, on ER-α, the Emax was no less than 40% and the DC50 is no more than 100 nM.
For `CC/C(=C(/c1ccc(/C=C/C(=O)O)cc1)c1ccc2[nH]ncc2c1)c1cccc(OC(F)(F)F)c1` [Compound 83, (E)-3-(4-((E)-1-(1H-Indazol-5-yl)-2-(3-(trifluoromethoxy)phenyl)but-1-en-1-yl)phenyl)acrylic acid], in the test on MCF-7 cells, the “MCF7 Viability Assay Max Response” value was “++ (++ = a single % value ≧ 40%)” and the IC50 was no more than 100 nM. In addition, on ER-α, the Emax was no less than 40% and the DC50 was no more than 100 nM.
For `O=C(O)/C=C/c1ccc(/C(=C(\c2ccccc2)C2CCC2)c2ccc3[nH]ncc3c2)cc1` [Compound 84, (E)-3-(4-((E)-2-Cyclobutyl-1-(1H-indazol-5-yl)-2-phenylvinyl)phenyl)acrylic acid], in the test on MCF-7 cells, the “MCF7 Viability Assay Max Response” value is recorded as “++ (++ = a single % value ≧ 40%)” and the IC50 is no more than 100 nM. Besides, at ER-α, the Emax is no less than 40% and the DC50 is no more than 100 nM.
`O=C(O)/C=C/c1ccc(/C(=C(\c2ccc(F)cc2Cl)C2CCC2)c2ccc3[nH]ncc3c2)cc1` [Compound 85, (E)-3-(4-((E)-2-(2-Chloro-4-fluorophenyl)-2-cyclobutyl-1-(1H-indazol-5-yl)vinyl)phenyl)acrylic acid]: in the test on MCF-7 cells, the “MCF7 Viability Assay Max Response” value was “++ (++ = a single % value ≧ 40%)” and the IC50 is no more than 100 nM. Besides, on ER-α, the Emax was no less than 40% and the DC50 is no more than 100 nM.
